Laboratory results from patent US20260376293A1, “METHODS FOR STUDYING GPR158 PHARMACOLOGY AND IDENTIFICATION OF ITS LIGANDS” (UNIVERSITY OF FLORIDA RESEARCH FOUNDATION, INCORPORATED, priority 2022, published 2026).

Target: T1, GPR158 (Homo sapiens, UniProt Q5T848)
T1 sequence (Q5T848 24-1215): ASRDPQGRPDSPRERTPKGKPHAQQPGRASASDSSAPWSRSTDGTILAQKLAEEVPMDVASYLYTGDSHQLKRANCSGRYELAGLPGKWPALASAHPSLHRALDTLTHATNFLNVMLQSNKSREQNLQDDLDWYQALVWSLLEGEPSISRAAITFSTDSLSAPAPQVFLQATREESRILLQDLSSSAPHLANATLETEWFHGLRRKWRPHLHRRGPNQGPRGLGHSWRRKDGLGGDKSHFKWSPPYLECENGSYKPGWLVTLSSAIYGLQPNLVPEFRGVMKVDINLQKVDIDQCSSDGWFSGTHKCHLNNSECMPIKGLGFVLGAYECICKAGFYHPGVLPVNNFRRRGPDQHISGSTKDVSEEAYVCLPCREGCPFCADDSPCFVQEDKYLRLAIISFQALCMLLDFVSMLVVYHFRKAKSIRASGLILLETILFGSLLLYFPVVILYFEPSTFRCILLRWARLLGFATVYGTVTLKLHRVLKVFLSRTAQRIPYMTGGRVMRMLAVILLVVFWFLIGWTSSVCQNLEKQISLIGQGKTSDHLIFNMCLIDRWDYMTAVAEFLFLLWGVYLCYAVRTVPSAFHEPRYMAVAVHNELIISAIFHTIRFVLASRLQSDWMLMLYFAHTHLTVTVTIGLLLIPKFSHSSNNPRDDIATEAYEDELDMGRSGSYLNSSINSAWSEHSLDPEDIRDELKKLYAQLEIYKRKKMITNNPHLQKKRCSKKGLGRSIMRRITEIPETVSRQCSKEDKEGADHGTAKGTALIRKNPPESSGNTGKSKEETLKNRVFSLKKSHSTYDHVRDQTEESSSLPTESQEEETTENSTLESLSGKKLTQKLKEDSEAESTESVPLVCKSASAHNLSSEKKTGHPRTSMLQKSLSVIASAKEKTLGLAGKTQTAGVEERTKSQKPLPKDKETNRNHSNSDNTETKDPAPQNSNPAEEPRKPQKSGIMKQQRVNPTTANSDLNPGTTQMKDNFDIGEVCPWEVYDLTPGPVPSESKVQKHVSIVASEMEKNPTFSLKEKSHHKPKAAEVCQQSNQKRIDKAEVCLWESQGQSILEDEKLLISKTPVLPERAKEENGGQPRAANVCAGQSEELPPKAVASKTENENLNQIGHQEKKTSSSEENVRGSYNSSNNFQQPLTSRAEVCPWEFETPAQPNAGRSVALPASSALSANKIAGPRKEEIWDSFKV
Experiment: Whole cell radioligand binding assay
Design: expressed in transfected cells; host or cells: HEK293 (HEK293FT in the BRET methods)
Conditions: HEK293 cells, across concentrations
Protocol: FIG. 7. Direct binding of glycine in whole cell radiolabeled assay a) Schematics of the radioligand binding assay. b) Quantification of ^3H-glycine binding to cells. Count Per minute (CPM) are measured and plotted. Data shown mean of 3 independent experiments error bars are s.e.m. values, n=3, *p=0.0403, ***p<0.001, ****p<0.0001 (two-way ANOVA) Columns with no fill (Control cells), columns with angled-line fill (GPR158 cells).
Next, the inventors performed radioligand binding assays examining binding of [^3H]-labeled glycine to HEK293 cells expressing GPR158 (FIG. 7A). […] The inventors have then isolated cellular membranes and conducted classical radioligand titration experiments (FIG. 9D). The inventors detected saturable [^3H]-glycine binding to membranes containing GPR158 is substantial excess over linear non-specific binding to membranes devoid of GPR158 (FIG. 9E). Scatchard analysis (FIG. 9F) estimated Kd of GPR158 for glycine to be ~3 μM. The inventors further performed binding competition experiments directly comparing the ability of glycine and taurine to displace [^3H]-labeled glycine bound to GPR158 (FIG. 8).
Whole cell binding was performed using cDNA of GPR158-venus or each GPR158-venus mutant or empty pcDNA3.1+ for ctrl cells. […] Finally radioactivity was measured using the liquid scintillation analyzer Tri-Carb 4910 TR.

- binding to GPR158-expressing cells: significant binding
Compound: NCC(=O)O [^3H-glycine, [^3H]-glycine]
